The source of these data is PMC12676205, “New Se‐Compounds With Antileishmanial, Antitumor, and Carbonic Anhydrase Inhibitory Properties” (Archiv Der Pharmazie, 2025).

Read-outs that look alike come from different tables or passages of the source.

The subject of series [1] is NSCL (non‐small‐cell lung cancer) subpanel. Briefly: NCI-60 five-dose assay, NSCL subpanel. The conditions noted are these: Homo sapiens, 48 h; for GI50: read-out: Mean GI50 NSCL; for LC50 (50% lethal concentration): read-out: Mean LC50 NSCL. It counts as cell-based. As to the method:
(§1) All the compounds were selected for further testing since they fulfilled the set NCI one‐dose screening parameters for threshold inhibition. They were tested at five different concentrations (0.01, 0.1, 1, 10, and 100 μM) for 48 h against the same cell line panel and the dose–response curves along with three response parameters (50% growth inhibitory concentration [GI50], the 50% lethal concentration [LC50], and the total growth inhibition [TGI]) were calculated for every cancer cell line. The full reported data and corresponding graphs are compiled in Supporting Information S1. Average values of GI50, TGI, and LC50 values of all the reported selenoesters in all the subpanels are represented in Figure 4.
(§2) All the reported selenoesters (1–6) were submitted to the DTP of NCI. First, they were screened at a single dose (10^−5 M) against a panel of 60 cancer cell lines derived from different tumor types following the methodology available (https://dtp.cancer.gov/discovery_development/nci-60/methodology.htm). As all the compounds satisfied the threshold inhibition criteria established, they were further assessed at five concentrations (0.01, 0.1, 1, 10, and 100 µM) against the same cell panel to obtain their corresponding dose–response curves and three antitumor parameters (GI50, TGI, and LC50) by regression. GraphPad Prism 7.0 Software was used to represent the corresponding graphs.

For series [2], the system named is Colon subpanel. The series is described as follows: NCI-60 one-dose screen, colon subpanel. It counts as cell-based, human. The conditions noted are these: 10 µM, 48 h. On the procedure:
(§3) To explore the potential antiproliferative properties of the newly synthesized derivatives, they were submitted to the National Cancer Institute's (NCI) Developmental Therapeutics Program (DTP) for screening at 10 μM in a panel of approximately 60 human cancer cell lines from different cancer types. The results are reported as the growth percentage (GP), which is the growth of the treated cells with each compound for 48 h compared to the untreated controls (Figure 2). […] The initial screening results are summarized in Figure 2, and the mean GP values of each subpanel are depicted in Figure 3. The full reports are compiled in the Supplementary Section.
as §2

Series [3] concerns Prostate subpanel. The series is described as follows: NCI-60 five-dose assay, prostate subpanel. Conditions: 48 h; for GI50 / CC50: Homo sapiens; for GI50: read-out: Mean GI50 Prostate; for CC50: read-out: Mean LC50 Prostate. It counts as cell-based, human. As to the method:
as §1, §2

The subject of series [4] is L. major promastigotes. Briefly: Leishmanicidal activity against promastigotes (MTT), L. major. It counts as cell-based, Leishmania major. On the procedure: (§4) The synthesized compounds were tested for their antileishmanial activity against promastigotes of L. major and L. infantum at four concentrations (1, 10, 50, and 100 µM) for 48 h using the 3‐(4,5‐dimethylthiazol‐2‐yl)‐2,5‐diphenyltetrazolium bromide (MTT) assay. In this evaluation, the activity was expressed in IC50 (concentration inhibiting the parasite growth by 50%). […] The CC50 was defined as the concentration of selenoesters that led to a reduction in the viability of the macrophages, such that only 50% of the cells survived when compared to the control group. This cell line, derived from the blood of a human with acute monocytic leukemia, was chosen as it has been widely reported that it resembles tissue macrophages to various extents as well as supports the infection by numerous Leishmania promastigotes. The selectivity indexes (SIs) were calculated as the ratio between toxicity on macrophages (THP‐1 cells)/antileishmanial activity. The data for standard control drugs (miltefosine and paromomycin) are included for comparison purposes.
(§5) The promastigotes of L. major (clone VI, MHOM/IL/80/Friendlin) and L. infantum (BCN‐150) were grown at 26°C under continuous shaking in M199 1× medium (Sigma, USA). This media was supplemented with 10% of heat‐inactivated fetal bovine serum (FBS) (Gibco, USA), 0.0005% (w/v) hemin, 0.1 mM adenine, 25 mM HEPES (pH 7.2), 0.0001% (w/v) biotin, and 100 UI/mL penicillin and […] streptomycin (Gibco, USA).
(§6) The antileishmanial activity of the reported selenoesters was determined using the MTT assay as previously described during the logarithmic growth phase of the tested promastigotes of L. major and L. infantum. Briefly, the Leishmania parasites were seeded into 96‐well flat‐bottom plates (3 × 10^5 parasites/100 µL) and treated with four different concentrations ranging between 1 and 100 µM of each selenoester at 26°C for 48 h. Afterwards, 20 µL of MTT (5 mg/mL in PBS) was added to each well and incubated for 4 h under the same conditions. Then, 80 µL/well of DMSO was added to dissolve the resultant formazan crystals. The absorbances were determined on a Multiskan EX photometric plate reader for microplates at 540 nm. Three independent experiments performed in triplicate were carried out for each compound, and OriginPro 8.5.1 Software was used to calculate the IC50 values by fitting the data to a dose–inhibition sigmoid curve.

Series [5] has as its system Melanoma subpanel. Briefly: NCI-60 one-dose screen, melanoma subpanel. Type of series: cell-based, human. The conditions noted are these: 10 µM, 48 h. As to the method: as §3, §2
The subject of series [6] is HaCaT cells. Briefly: MTS cell viability assay in nonmalignant HaCaT cells. It counts as cell-based, human. Conditions: 48 h, mean ± SD. As to the method: (MTS) assay as previously described. Thus, the selenoesters were tested at seven different concentrations (1, 2.5, 5, 10, 25, 50, and 100 µM) during 48 h to determine their corresponding IC50 values.
The effect of each compound on the cell viability of HaCaT cells was tested using the MTS assay. The compounds (1–6) were dissolved in DMSO at a concentration of 10^−2 M, and serial dilutions were prepared. Briefly, the cells were seeded in a 96‐well plate at a density of 1 × 10^4 cells per well. After 24 h of incubation, the cells were treated with either DMSO or seven different concentrations of each selenoester (1, 2.5, 5, 10, 25, 50, and 100 µM) for 48 h in triplicate. At the end of the treatment duration, the media were removed and fresh media were added containing 20 μL of MTS (Promega, USA) per well. After 1 h incubation, the absorbances were read at a wavelength of 490 nm in a 96‐well multiscanner, and the ratio of viable cells was calculated. Data were obtained from at least three independent experiments performed in triplicate. The IC50 values were calculated using OriginPro 8.5.1 Software for nonlinear curve fitting, and Graphpad Prism 7.0 Software was used to represent the corresponding graphs.
(Tetrazolium dyes change colour on reduction, which living cells bring about.)

Series [7] has as its system NSCL (non‐small‐cell lung cancer) subpanel. Briefly: NCI-60 one-dose screen, NSCL subpanel. It counts as cell-based, human. Conditions: 10 µM, 48 h. As to the method: as §3, §2
For series [8], the system named is Renal subpanel. Briefly: NCI-60 five-dose assay, renal subpanel. Conditions: Homo sapiens, 48 h; for GI50: read-out: Mean GI50 Renal; for LC50: read-out: Mean LC50 Renal. It counts as cell-based. As to the method: as §1, §2
For series [9], the system named is NCI‐60 human cancer cell lines. Briefly: NCI-60 five-dose assay, whole panel. Type of series: cell-based. Conditions: 48 h, bound for every subpanel. On the procedure: as §1, §2
Series [10] relates to Melanoma subpanel. The series is described as follows: NCI-60 five-dose assay, melanoma subpanel. It counts as cell-based. Conditions: Homo sapiens, 48 h; for GI50: read-out: Mean GI50 Melanoma; for LC50 (50% lethal concentration): read-out: Mean LC50 Melanoma. On the procedure:
as §1, §2

In series [11] the test system is L. infantum promastigotes. Briefly: Leishmanicidal activity against promastigotes (MTT), L. infantum. Type of series: cell-based, Leishmania infantum. As to the method: as §4, §5, §6
[12] abbreviates: Leishmania major, 48 h, mean ± SD, read-out: L. major IC50.
The mark [13] stands for this setting: Leishmania infantum, 48 h, mean ± SD, read-out: L. infantum IC50.
The mark [14] stands for this setting: 48 h, mean ± SD, read-out: L. major IC50.
Where [15] appears, read: read-out: L. major IC50, 48 h, mean ± SD.
[16] abbreviates: 48 h, mean ± SD, read-out: L. infantum IC50.
[17] abbreviates: read-out: L. infantum IC50, 48 h, mean ± SD.

As a reminder, the GI50 is the concentration that inhibits growth by half. What is called IC50 is the concentration at which inhibition is half-maximal. For orientation: LC50 means the concentration that kills 50% of the test population. For `N#Cc1ccc(NC(=O)C[Se]C(=O)c2ccccc2)cc1C(F)(F)F` [Compound 1, Se‐(2‐((4‐cyano‐3‐(trifluoromethyl)phenyl)amino)‐2‐oxoethyl)benzoselenoate], the GI50 in series [1] turned out to be 1.54 µM; in series [3], 1.54 µM; in series [8], 1.57 µM; in series [10] it was 1.36 µM. For the same compound, the LC50 (50% lethal concentration) amounted to 5.61 µM in series [1] and 5.49 µM in series [10]. Moreover, the “average growth cell value, Colon” value in series [2] is recorded as -95.24%. Further, in series [3], the CC50 is 5.91 µM. The IC50 amounted to 26.6 ± 1.81 µM in [4] (setting [12]); 11.8 ± 1.89 µM in series [6] (Homo sapiens, HaCaT); 29.2 ± 2.65 µM in series [11] (setting [13]). The “average growth cell value, Melanoma” value in [5] is given as -94.28%. For the same compound, the “average growth cell value, NSCL” value in series [7] is -96.68%. For the same compound, in [8], the LC50 was determined as 6.11 µM. In [9], the “mean TGI values against all the subpanels tested” value was “below 5 µM”.
Consider `O=C(C[Se]C(=O)c1ccccc1)Nc1ccc([N+](=O)[O-])c(C(F)(F)F)c1` [Compound 2, Se‐(2‐((4‐nitro‐3‐(trifluoromethyl)phenyl)amino)‐2‐oxoethyl)benzoselenoate], for which the GI50 in series [1] stood at 1.41 µM; in series [3] it was 1.44 µM; in series [8], 1.38 µM; in series [10], 1.24 µM. For the same compound, the values for the LC50 (50% lethal concentration) in series [1] and in [10] were 5.36 µM and 5.37 µM, respectively. The “average growth cell value, Colon” value in [2] is given as -81.88%. Besides, in series [3], the CC50 came out at 5.66 µM. Moreover, the 50% inhibitory concentration (IC50) in series [4] (setting [12]) worked out at 27.1 ± 3.35 µM; in series [6] (Homo sapiens, HaCaT), 9.49 ± 0.42 µM; in series [11] (setting [13]) it was 29.4 ± 2.1 µM. In addition, in series [5], the “average growth cell value, Melanoma” value is recorded as -94.64%. Besides, the “average growth cell value, NSCL” value in series [7] was -96.34%. In addition, in series [8], the LC50 is 5.2 µM. Further, in series [9], the “mean TGI values against all the subpanels tested” value is on record as “below 5 µM”.
With `O=C(C[Se]C(=O)c1ccccc1)Nc1cccc(OC(F)(F)F)c1` [Compound 3, Se‐(2‐oxo‐2‐((3‐(trifluoromethoxy)phenyl)amino)ethyl)benzoselenoate], the GI50 was 2.3 µM in [1], 2.16 µM in series [3], 2.33 µM in [8] and 2.33 µM in series [10]. Moreover, the figures for the LC50 (50% lethal concentration) in series [1] and in series [10] were 13.2 µM and 13.6 µM, respectively. Further, the “average growth cell value, Colon” value in [2] is on record as 25.15%. The CC50 in [3] is 12.6 µM. In addition, the IC50 in series [4] (setting [14]) is 9.67 ± 0.78 µM; in series [4] (setting [12]), 6 to 10 µM; in series [4] (setting [15]), less than 10 µM; in [6], 63.7 ± 4.32 µM; in series [6] (Homo sapiens, HaCaT), roughly 64 µM; in series [11] (setting [16]), 6.59 ± 3.73 µM. In addition, the IC50 in series [11] (setting [13]) was 6 to 10 µM; in [11] (setting [17]), less than 10 µM. Also, in series [5], the “average growth cell value, Melanoma” value is listed as -50.62%. The “average growth cell value, NSCL” value in series [7] was -57.44%. In addition, the LC50 in [8] came out at 15.4 µM.
As for `O=C(C[Se]C(=O)c1ccco1)Nc1ccc([N+](=O)[O-])c(C(F)(F)F)c1` [Compound 5, Se‐(2‐((4‐nitro‐3‐(trifluoromethyl)phenyl)amino)‐2‐oxoethyl)furan‐2‐carboselenoate], the GI50 in series [1] was 1.9 µM; in series [3] it was 1.85 µM; in [8], 2.2 µM; in series [10] it was 1.7 µM. Also, the “average growth cell value, Colon” value in series [2] is on record as -17.82%. Further, the CC50 in series [3] amounted to 54.4 µM. Further, the IC50 in [4] (setting [12]) stood at 18.3 ± 5.9 µM; in series [11] (setting [13]), 32.9 ± 8.25 µM. Further, the “average growth cell value, Melanoma” value in series [5] is on record as -56.28%. In addition, the “average growth cell value, NSCL” value in series [7] was -42.46%.
Regarding `O=C(C[Se]C(=O)c1ccco1)Nc1cccc(OC(F)(F)F)c1` [Compound 6, Se‐(2‐oxo‐2‐((3‐(trifluoromethoxy)phenyl)amino)ethyl)furan‐2‐carboselenoate], the GI50 in [1] was 3.64 µM; in [3], 5.38 µM; in series [8], 5.62 µM; in series [9] (Homo sapiens, read-out: mean GI50 values in all the cancer subpanels tested) it was less than 10 µM; in series [10], 4.95 µM. In series [2], the “average growth cell value, Colon” value is 31.61%. The CC50 in series [3] worked out at 100 µM. Moreover, the “cytotoxic activity (LC50) in the prostate cancer subpanel” value in series [3] (five-dose) is listed as “devoid of activity”. For the same compound, the IC50 was 10.1 ± 1.27 µM in series [4] (setting [14]); 6 to 10 µM in series [4] (setting [12]); less than 10 µM in series [4] (setting [15]); 5.99 ± 2.33 µM in series [11] (setting [16]); 6 to 10 µM in series [11] (setting [13]); less than 10 µM in series [11] (setting [17]). Besides, in [5], the “average growth cell value, Melanoma” value is recorded as -18.35%. For the same compound, the “average growth cell value, NSCL” value in series [7] is given as -12.41%.
